Assay results from PubChem BioAssay AID1996.
Values after ≈ are worked out from the molar mass of the structure shown.

Settings: buffer; pH 7.4; 200.0 µM

| SMILES | solubility kinetic [µg/mL] |
| --- | --- |
| CC(=O)Nc1ccc(S(=O)(=O)Nc2nc3ccccc3nc2N2CCOCC2)cc1 | > 64.1 |
| COc1ccc(C(C)NC(=O)C2CCCC2)cc1 (centres undefined) | > 37.1 |
| Cn1c(Br)nc2c1c(=O)n(Cc1ccccc1)c(=O)n2C | 46.1 (≈ 132 µM) |
| Fc1ccc(-c2c[nH]c(=S)n2Cc2ccccc2)cc1 | 1.4 (≈ 4.92 µM) |
| O=C(CCNC(=O)c1ccc(Cl)cc1)Nc1ncccc1O | 45 (≈ 141 µM) |
| CN(C)c1cc(-c2ccc(Cl)c(Cl)c2)oc(=O)c1Cl | 0.7 (≈ 2.2 µM) |
| CCSc1nc(O)cc(=O)n1CC | > 30 |
| COCc1cc(C)nc(SCC(=O)NCC2CCCO2)c1C#N (centres undefined) | > 50.3 |
| CC(C)N1CCN(Cc2ccsc2)CC1CCO (centres undefined) | > 40.3 |
| O=C(Nc1ccc(F)cc1)c1nc[nH]c1C(=O)O | > 37.4 |
| CN1CCN(c2nc3c(c(=O)n(C)c(=O)n3C)n2Cc2ccccc2F)CC1 | > 58 |
| O=C(COc1ccc2ccc(=O)oc2c1)Nc1nccs1 | 11.3 (≈ 37.4 µM) |
| O=S(=O)(Nc1ccc(Br)cn1)c1ccc2ccccc2c1 | 1.3 (≈ 3.58 µM) |
| COC(=O)Cc1ccc(NC(=S)N2CCN(c3ccccn3)CC2)cc1 | 5 (≈ 13.5 µM) |
| Cc1cccc(NC(=S)N(CCN(C)C)Cc2cccs2)c1 | 46.7 (≈ 140 µM) |
| COc1cc(C(=O)N[C@H](C(=O)NC2CCCc3ccccc32)C(C)C)cc(OC)c1OC (some centres undefined) | 4.9 (≈ 11.1 µM) |
| COc1cc2[nH]c(C(=O)Nc3ccc(F)cc3)cc2c(OC)c1OC | 2.4 (≈ 6.97 µM) |
| Cc1cnc(C(=O)N2CCN(c3ccc(C(F)(F)F)cn3)CC2)cn1 | 48 (≈ 137 µM) |
| c1cc2c3c(cccc3c1)NC(c1ccc3c(c1)OCO3)N2 | 9.5 (≈ 32.7 µM) |
| COc1ccc(NC(=O)CN(C)Cc2cccs2)cc1Cl | 42.1 (≈ 130 µM) |
| CC(=O)Nc1ccc(/C=C/c2nc3ccccc3[nH]c2=O)cc1 | 27 (≈ 88.4 µM) |

| SMILES | solubility kinetic [µg/mL] |
| --- | --- |
| O=C(Nc1ccccc1C(=O)Nc1ccccc1)c1ccccc1F | < 0.4 |
| COc1ccccc1N(CCOc1ccccc1)S(=O)(=O)c1ccccc1 | 3.9 (≈ 10.2 µM) |
| O=C(/N=C1\NC(=O)C(F)(C(F)(F)F)S1)NC1CCCCC1 (centres undefined) | > 49.1 |
| CC(=O)Nc1ccc(C(=O)N2CCc3cc4c(cc3C2C)OCCCO4)cc1 (centres undefined) | > 57.1 |
| COc1ccc(Cl)cc1NC(=O)COC(=O)Cc1cc(OC)c(OC)c(OC)c1 | 46.6 (≈ 110 µM) |
| COc1cc(C(=O)OC(C)C(=O)N2CCCC2)cc2c1OCCO2 (centres undefined) | > 50.3 |
| NS(=O)(=O)c1ccc(CCNC(=O)CN2CCN(S(=O)(=O)c3ccccc3F)CC2)cc1 | > 72.7 |
| COc1ccc(CCC2CCNCC2)cc1.Cl | > 38.4 |
| COc1ccc2cc(C(=O)C3CCCN(Cc4cccc(C)n4)C3)ccc2c1 (centres undefined) | 37.7 (≈ 101 µM) |
| O=C(Nc1nnc(-c2ccncc2)o1)c1ccccc1 | > 39.9 |
| CC(C)c1ccc(/C=C2\NC(=O)NC2=O)cc1 | 13.9 (≈ 60.4 µM) |
| Cc1cccc(C)c1NC(=O)C(=O)NCCc1c[nH]c2ccccc12 | 1.3 (≈ 3.88 µM) |
| COCc1cc(=O)[nH]c2c1c(-c1ccccc1)nn2C | > 40.4 |
| CCOC(=O)c1oc2ccccc2c1NC(=O)CCl | 10.8 (≈ 38.3 µM) |
| CCC(C)NC(=O)c1cc2cc3ccc(OC)cc3nc2o1 (centres undefined) | 30.4 (≈ 102 µM) |
| Cc1ccc(S(=O)(=O)N2CCN(c3ccccn3)CC2)cc1 | 0.3 (≈ 0.945 µM) |
| CSc1ccc(Cl)c(C(=O)Nc2cc(S(=O)(=O)N3CCOCC3)ccc2N2CCOCC2)c1 | 3.4 (≈ 6.64 µM) |
| CC1(C)CC(=O)C(C(O)c2cccc([N+](=O)[O-])c2)C(C)(C)N1 (centres undefined) | 44.9 (≈ 147 µM) |
| COC(=O)/C(C#N)=C/c1ccc(N2CCOCC2)c([N+](=O)[O-])c1 | 11 (≈ 34.7 µM) |
| CCCc1cc(=O)[nH]c(SCC(=O)NC2CC2)n1 | > 40.1 |
| Cc1ccc(Sc2c([N+](=O)[O-])c(=O)n(C)c3ccccc23)cc1 | < 0.3 |

| SMILES | solubility kinetic [µg/mL] |
| --- | --- |
| O=C(O)C1C2CCC(O2)C1C(=O)Nc1cccc(Br)c1 (centres undefined) | 50.7 (≈ 149 µM) |
| O=[N+]([O-])c1ccc(N=Cc2c(O)ccc3ccccc23)cc1 | 30.5 (≈ 104 µM) |
| COCCCNC(=O)CN1C(=O)c2cccc3cccc1c23 | > 44.8 |
| CN1CCC(C)(O)C2CCCCC21 (centres undefined) | > 27.5 |
| Cc1ccc(Oc2ccc(NS(=O)(=O)c3cccc(C(=O)O)c3)cc2)cc1 | 57.2 (≈ 149 µM) |
| CCOc1cc(/C=C2\SC(N)=NC2=O)ccc1O | 22.5 (≈ 85.1 µM) |
| COc1cc(/C=C/C(=O)NCC2CCCCC2)cc(OC)c1OC | < 0.7 |
| Cn1cc(C(=O)OCC(=O)NC2CCCC2)c2ccccc21 | 7.2 (≈ 24 µM) |
| Cc1cc(C)cc(NC(=O)c2cccc(NC(=O)c3ccco3)c2)c1 | 1 (≈ 2.99 µM) |
| CC(=O)OC(CC(=O)O)C[N+](C)(C)C.[Cl-] (centres undefined) | > 36 |
| O=C(/C=C/c1ccco1)NCCCN1CCOCC1 | > 39.6 |
| COc1cccc(OC)c1C(=O)NC(=O)Oc1c(F)cccc1F | 43.8 (≈ 130 µM) |
| COc1ccccc1CNC(=O)c1cc2ccccc2oc1=O | < 0.7 |
| O=C(COC(=O)C1CC(=O)N(Cc2ccco2)C1)Nc1ccc(F)cc1F (centres undefined) | > 56.7 |
| CCN(C(=O)CCCCC(=O)N(CC)c1ccccc1)c1ccccc1 | > 52.9 |
| Fc1ccc(CNCc2ccco2)cc1 | 11.8 (≈ 57.5 µM) |
| CC(C)OC(=O)NCCOC(=O)Nc1ccccc1Cl | > 45.1 |
| CC(=O)Nc1sc(-c2ccc(Cl)cc2)nc1-c1ccccc1 | < 0.4 |
| CN(Cc1ccccc1)C(=O)COC(=O)c1ccc[nH]c1=O | > 45 |
| COc1ccc(NC(=O)CNc2ccccc2C(C)=O)cc1S(=O)(=O)N1CCOCC1 | 63.9 (≈ 143 µM) |
| CC1CC(C)CN(C(=O)c2cccc(NC(=O)CC3SC(N4CCCCC4)=NC3=O)c2)C1 (centres undefined) | 67.1 (≈ 147 µM) |

| SMILES | solubility kinetic [µg/mL] |
| --- | --- |
| CC(=O)c1csc(COc2cc(Cl)cc(Cl)c2)n1 | < 0.6 |
| COc1ccc(NC(=O)COC(=O)CCSc2ccccc2)cc1OC | 55.5 (≈ 148 µM) |
| Cc1ccc(NC(=O)C(=O)C2C(=O)Nc3ccccc32)cc1 (centres undefined) | 39.8 (≈ 135 µM) |
| Cc1cc(C)cc(NC(=O)CN2C(=O)C3CC=CCC3C2=O)c1 (centres undefined) | > 46.9 |
| Cc1ccc(NC(=O)CCOc2ccccc2C)cc1C | 1.7 (≈ 6 µM) |
| Cc1ccc2cc(CNCCc3ccccc3C)c(=O)[nH]c2c1 | 40.7 (≈ 133 µM) |
| CCCC(C)NC(=O)C1c2ccccc2Oc2ccccc21 (centres undefined) | 1.2 (≈ 4.06 µM) |
| CCC(=O)N1CCCC(C(=O)c2ccc(-c3ccccc3)cc2)C1 (centres undefined) | 29.9 (≈ 93 µM) |
| COCC1CCCN(Cc2nc(Cc3ccccc3)no2)C1 (centres undefined) | 44.7 (≈ 148 µM) |
| S=C(NCCc1ccc(Cl)cc1)NCc1ccccc1 | 16.7 (≈ 54.8 µM) |
| Cc1cnc(NC(=O)Cc2ccc(S(=O)(=O)N3CCOCC3)s2)s1 | 19.7 (≈ 50.8 µM) |
| NC(=S)NC1CC2CC1C1C=CCC21 (centres undefined) | > 31.2 |
| Cc1nc2ccc(Cl)cc2c(=O)n1-c1ccc([N+](=O)[O-])cc1 | 3.7 (≈ 11.7 µM) |
| Cc1ccc(N=C2NC(=O)/C(=C/c3cccnc3)S2)c(C)c1 | 4.8 (≈ 15.5 µM) |
| Cc1ccc(S(=O)(=O)N(C)CC(=O)NCC(=O)Nc2ccc(F)c(F)c2F)cc1 | 6.4 (≈ 14.9 µM) |
| O=C(O)c1cc(NC(=O)c2ccco2)cc(NC(=O)c2ccco2)c1 | 44.4 (≈ 130 µM) |
| O=C(COC(=O)c1ccc[nH]c1=O)NC1CC1 | 32.3 (≈ 137 µM) |
| O=[N+]([O-])c1ccc(S(=O)(=O)Nc2ncccn2)cc1 | > 42 |
| COC(=O)C1CN(C(=O)C(C)Oc2ccccc2F)c2ccccc2O1 (centres undefined) | > 53.9 |
| Cc1cc(NC(=O)c2cc(-c3ccc(O)cc3)on2)no1 | 0.5 (≈ 1.75 µM) |
| CN(CC(=O)Nc1ccc2c(c1)OCCO2)CC(=O)Nc1ccc(F)c(F)c1F | > 61.4 |
